Data set [1] can be described thus: Determination of relaxivity (longitudinal R1 by Inversion Recovery, transverse R2 by Carr-Purcell-Meiboom-Gill sequence, MINISPEC PC 120 BRUKER). In kind it is physicochemical. As to conditions: 20 MHz (proton), 39°C, pH 7.3, 0 to 5 mM, water; for R₁: longitudinal relaxivity; for R₂: transverse relaxivity. As to the method: Determination of the relaxivity of the compounds of the present invention.
Longitudinal relaxivity (R₁) measurements were calculated using the "Inversion Recovery" sequence with an 8 point minimum and a 3 parameter fit, according to the program provided for the MINISPEC […] BRUKER instrument, by which measurements were taken.
Transverse relaxivity (R₂) measurements were calculated using the sequence of Carr, Purcell, Meiboom and Gill, according to the program provided for the MINISPEC 120 BRUKER instrument, by means of which measurements were taken, adjusting the apparatus in such a way as to observe the decay of the signal to about 1/3 of the starting value, with a score number higher or equal to 10 and a 2 parameter fit.
In table I, R₁ and R ₂ values calculated for compounds A and B in comparison with Gd/DTPA neutralized with N-methylglucamine, are reported as non-limiting examples.

Data set [2] has as its system mouse. As to the kind of experiment: Determination of LD50 in the mouse by intravenous administration. Format: in vivo. As to conditions: male and female mice, Strain: Crl:CDl(ICR)BR, range in parentheses. An excerpt: Determination of LD₅₀ in the mouse by intravenous administration of the compounds of the present invention. In table II are reported, as non-limiting examples, the LD₅₀ values for compounds A and B of the present invention, in comparison with GdCl₃ and with Gd/DTPA neutralized with N-methylglucamine.

`C[NH2+]C[C@H](O)[C@@H](O)[C@H](O)[C@H](O)CO.O=C([O-])CN1CCN(CC(=O)[O-])CCN(C(COCc2ccccc2)C(=O)[O-])CCN(CC(=O)[O-])CC1.[Gd+3]` (stereo not shown) [A, Gd^(3+)/2-[1,4,7,10-tetraaza-4,7,10-tri(carboxymethyl)-cyclododecane-1-yl]-3-benzyloxypropionic acid, neutralized with N-methylglucamine]: in data set [1] (solvent 0.154 M NaCl (0.9%)), the R₁ amounted to 4.15 ± 0.01 mM/s and the R₂ stood at 5.67 ± 0.02 mM/s. Moreover, in data set [2], the “LD₅₀ in the mouse* in mmol/kg - intravenous” value (“LD₅₀ in the mouse* in mmol/kg” below) was 8.8 (7.79 - 9.94) mmol/kg.

For the compound `C[NH2+]C[C@H](O)[C@@H](O)[C@H](O)[C@H](O)CO.O=C([O-])CN1CCN(CC(=O)[O-])CCN(C(CO)C(=O)[O-])CCN(CC(=O)[O-])CC1.[Gd+3]` (stereo not shown) [B, Gd^(3+)/2-[1,4,7,10-tetraaza-4,7,10-tri(carboxymethyl)-cyclododecane-1-yl]-3-hydroxypropionic acid, neutralized with N-methylglucamine], in data set [1] (solvent 0.154 M NaCl (0.9%)), the R₁ turned out to be 3.72 ± 0.01 mM/s and the R₂ stood at 5.06 ± 0.01 mM/s. Further, in data set [2], the “LD₅₀ in the mouse* in mmol/kg” value is given as 13.1 (12.2 - 14.1) mmol/kg.

For `CNC[C@H](O)[C@@H](O)[C@H](O)[C@H](O)CO.CNC[C@H](O)[C@@H](O)[C@H](O)[C@H](O)CO.O=C([O-])CN(CCN(CC(=O)[O-])CC(=O)O)CCN(CC(=O)[O-])CC(=O)O.[Gd+3]` [Gd/DTPA, reference compound], in data set [1] (solvent 0.154 M (0.9%)), the R₁ was 4.08 ± 0.01 mM/s and the R₂ amounted to 5.15 ± 0.02 mM/s. In data set [2], the “LD₅₀ in the mouse* in mmol/kg” value is 4.8 (4.47 - 5.16) mmol/kg.

Turning to `[Cl][Gd]([Cl])[Cl]` [GdCl₃, reference compound], the “LD₅₀ in the mouse* in mmol/kg” value in data set [2] is 0.28 (0.24 - 0.32) mmol/kg.

These data come from patent EP0325762B1, “Macrocyclic chelating agents and chelates thereof” (BRACCO S.p.A., priority 1987, dated 1989).
